# Laboratory results: publication PMC8876244, “Effective Synthesis and Antifouling Activity of Dolastatin 16 Derivatives” (Marine Drugs, 2022)
# Where two headings read alike, the source gives them in different places. Starred links: 1 amine or outer side, 2 acyl side, 3 side chain; linkers in the order of their positions; H or OH if unused. Non-standard residues stand in square brackets, D forms with d. Residues, ends and D or L forms follow the SMILES beside them. *: point of attachment. X3 = CC(=O)Oc1ccc(C[C@@H](C)[C@H](N[*:1])C(=O)[*:2])cc1; X4 = CC(C)[C@@H](N[*:1])[C@@H](C)C(=O)[*:2]; X1 = CC(Cc1ccccc1)C(N[*:1])C(=O)[*:2]; X2 = CC(C)C(N[*:1])C(C)C(=O)[*:2]; X5 = C[C@H](OCc1ccccc1)C(=O)*; dNMeV = CN[C@@H](C(=O)O)C(C)C; dHiv = CC(C)[C@@H](O)C(=O)O; Hiv = CC(C)[C@H](O)C(=O)O; Lac = C[C@H](O)C(=O)O; OBn = c1ccc(CO*)cc1
# Assays:
# [1] = system: cypris larvae of the barnacle Amphibalanus amphitrite; test: Antifouling assay: inhibition of settlement of cypris larvae, 48 h exposure; assay type: in vivo; conditions: for EC50: Amphibalanus amphitrite, 48 h
# Description: The antifouling activities of synthetic samples were evaluated as EC50 values against the cypris larvae of A. amphitrite by exposure of each compound for 48 h (Table 1, Figure 2). […] We next investigated the biological activity of the fragments.
# (§1) Antifouling assay against larvae of the barnacle Amphibalanus amphitrite was conducted according to the previous literature. The adult barnacles, A. amphitrite, obtained from oyster farms in Lake Hamana and a pier of Shimizu bay, Shizuoka, were kept in an aquarium at 20 °C and were fed on Artemia salina nauplii. Broods were released as I–II stage nauplii upon immersion in seawater after drying overnight. The nauplii (1.0~3.0 indiv./mL) thus obtained were cultured in 2.0 L filtered (0.2 μm) natural seawater (diluted by DW: salinity 28) containing penicillin G (20 μg/mL) and streptomycin sulfate (30 μg/mL) at 25 °C and were fed on the diatom Chaetoceros gracillis at concentrations of 40 × 10^4 cells/mL. Larvae reached the cyprid stage in 5 days. The cyprids were collected, then stored at 4 °C until use (0-day-old).
# (§2) The test compounds were dissolved in ethanol and aliquots of the solution (20 μL) were transferred to wells of a 24-well polystyrene culture plates and then air-dried for 3 h at room temperature and CuSO4 was used as positive compound. Four wells were used for each concentration (0.03, 0.1, 0.3, 1.0, 3.0, 10.0 μg/mL). To each well were added filtered ([…]) natural seawater (2.0 mL, salinity 28) and six 2-day-old cyprids. The plates were kept in the dark at 25 °C for 48 h. […] Three or four trials were carried out for each concentration. Antifouling activity (EC50) indicates the concentration reducing the larval settlement to 50% of the control (non-treatment) by Probit analysis. Toxicity of compounds were expressed as LC50 value, which indicates the concentration showing 50% mortality estimated by Probit analysis.
# [2] = Antifouling assay: toxicity (mortality) to cypris larvae, 48 h exposure; conditions: Amphibalanus amphitrite (barnacle, cypris larvae), in vivo, 50% mortality of cyprids, highest concentration 10.0 μg/mL, read-out: LC50 (50% lethal concentration)
# Description: as §1, §2
# [3] = system: cypris larvae of the barnacle Amphibalanus amphitrite; conditions: previous compounds and positive control, cited from earlier work; for EC50: read-out: EC50 (μM), antifouling activity
# [4] = system: larval settlement and metamorphosis of the barnacle Amphibalanus amphitrite; parameters: method as in PMID 20658384; conditions: cited from earlier work
# [5] = system: barnacle Amphibalanus amphitrite; parameters: method as in PMID 20658384; conditions: cited from earlier work
# [6] = system: human cancer cell lines such as NCI-H460, KM20L2 and SF-295; conditions: cited from earlier work
# [7] = system: cypris larvae of the barnacle Amphibalanus amphitrite; conditions: previous compounds and positive control; cited from earlier work
# [8] = larval settlement reduced to 50% of control, Probit analysis, read-out: EC50 (50% effective concentration), antifouling activity
# [9] = larval settlement, read-out: EC50 (μM), antifouling activity
structure (smiles),measurement,setting,value
CC(C)[C@@H](NC(=O)[C@@H]1CCCN1C(=O)[C@@H](NC(=O)OC(C)(C)C)[C@H](C)Cc1ccccc1)[C@@H](C)C(=O)OCc1ccccc1 [Boc-3],EC50,[1]; [8],< 1 µg/mL
same,EC50,[1]; [9],1.3 µM
same,LC50,[2],> 10 µg/mL
"CC(C)C1NC(=O)[C@@H]2CCCN2C(=O)C(C(C)Cc2ccccc2)NC(=O)[C@@H]2CCCN2C(=O)[C@@H](C(C)C)N(C)C(=O)[C@@H](C(C)C)OC(=O)[C@@H]2CCCN2C(=O)[C@H](C)OC(=O)C1C (some centres unmarked) [Compound 1, Dolastatin 16] (cyclo([Lac]P[dHiv][dNMeV]P[X1]P[X2]))","EC50 (50% effective concentration), antifouling activity",[3],<0.03 µg/mL
same,EC50,[3],< 0.03 µM
same,EC50 (50% effective concentration),[4],0.003 µg/mL
same,LC50 (50% lethal concentration),[5],20 µg/mL
same,Growth inhibition of human cancer cell lines,[6]; 1 isolated from the natural sample,strong growth inhibitions
same,Anticancer activity of synthetic sample versus isolated compound,[6]; synthetic 1,much less potent than the isolated compound
same,LC50 (50% lethal concentration),[7],>10 µg/mL
CC(C)[C@H](OC(=O)[C@@H]1CCCN1C(=O)[C@H](C)OCc1ccccc1)C(=O)N(C)[C@@H](C(=O)N1CCC[C@H]1C(=O)O)C(C)C [Compound 2] (X5-P[Hiv][dNMeV]P-OH),"EC50 (50% effective concentration), antifouling activity",[3],>10 µg/mL
same,EC50,[3],> 17 µM
same,LC50 (50% lethal concentration),[7],>10 µg/mL
CC(C)[C@@H](NC(=O)[C@@H]1CCCN1C(=O)[C@@H](N)[C@H](C)Cc1ccccc1)[C@@H](C)C(=O)OCc1ccccc1 [Compound 3],"EC50 (50% effective concentration), antifouling activity",[3],1.17 µg/mL
same,EC50,[3],1.92 µM
same,LC50 (50% lethal concentration),[7],>10 µg/mL
"CC(C)[C@@H](NC(=O)[C@@H]1CCCN1C(=O)[C@@H](NC(=O)OC(C)(C)C)[C@H](C)Cc1ccc(O)cc1)[C@@H](C)C(=O)OCc1ccccc1 [Compound 21, Boc-Dpv(OH)-Pro-Dml-OBn]",EC50,[1]; [8],< 1 µg/mL
same,EC50,[1]; [9],0.96 µM
same,LC50,[2],> 10 µg/mL
"CC(C)[C@@H](NC(=O)[C@@H]1CCCN1C(=O)[C@@H](NC(=O)OC(C)(C)C)[C@H](C)Cc1ccc(OCc2ccccc2)cc1)[C@@H](C)C(=O)OCc1ccccc1 [Compound 22, Boc-Dpv(OBn)-Pro-Dml-OBn]",EC50,[1]; [8],4.62 µg/mL
same,EC50,[1]; [9],6.47 µM
same,LC50,[2],> 10 µg/mL
"CC(=O)Oc1ccc(C[C@@H](C)[C@@H]2NC(=O)[C@@H]3CCCN3C(=O)[C@@H](C(C)C)N(C)C(=O)[C@H](C(C)C)OC(=O)[C@@H]3CCCN3C(=O)[C@H](C)OC(=O)[C@H](C)[C@@H](C(C)C)NC(=O)[C@@H]3CCCN3C2=O)cc1 [Compound 24, Dolastatin 16 Acetate] (cyclo([Hiv][dNMeV]P[X3]P[X4][Lac]P))",EC50,"[1]; read-out: EC50 (50% effective concentration), antifouling activity",1.74 µg/mL
same,EC50,"[1]; read-out: EC50 (μM), antifouling activity",1.86 µM
same,Antifouling activity (in words),[1]; settlement of cypris larvae,much less potent than dolastatin 16
same,LC50 at 48 h,[2],> 10 µg/mL
"CC(C)[C@H](OC(=O)[C@@H]1CCCN1C(=O)[C@H](C)OCc1ccccc1)C(=O)N(C)[C@@H](C(=O)N1CCC[C@H]1C(=O)OCc1ccccc1)C(C)C [Compound 25, BnO-Lac-Pro-O-Hiv-D-MeVal-Pro-OBn] (X5-P[Hiv][dNMeV]P-OBn)",EC50,[1]; [8],< 1 µg/mL
same,EC50,[1]; [9],1.32 µM
same,LC50,[2],> 10 µg/mL
"CC(C)[C@H](OC(=O)[C@@H]1CCCN1C(=O)OC(C)(C)C)C(=O)N(C)[C@@H](C(=O)N1CCC[C@H]1COCc1ccccc1)C(C)C [Compound 29, Boc-Pro-O-Hiv-D-MeVal-Pro-CH2OBn]",EC50,[1]; [8],3.27 µg/mL
same,EC50,[1]; [9],6.52 µM
same,LC50,[2],> 10 µg/mL
"O=S(=O)([O-])[O-].[Cu+2] [CuSO4, reference compound]","EC50 (50% effective concentration), antifouling activity",[3],0.10 µg/mL
same,EC50,[3],0.63 µM
same,LC50 (50% lethal concentration),[7],>10 µg/mL
